According to patent publication US11013235B2 (priority 2015, dated 2021):
Where two headings read alike, the source gives them in different places.

Columns and labels:
Type in all cases: in vivo
[1] = test system: Candidatus 'Liberibacter asiaticus'; conditions: spraying every 15 days, 12 months after treatment, Citrus sinensis with HLB
Botrytis cinerea [2] = assay: Control of Botrytis cinerea disease in tomato (Bc-SI); conditions: 1 μM spraying every 24 hours for one week, water control 7.4
Description: (§1) In order to compare the effect of the compounds of formula I to V on the control of diseases in different plants, experiments were conducted in tobacco, tomato and Arabidopsis thaliana plants inoculated with Phytophthora parasitica, Rhizoctonia solani, Alternaria solani, Nocardia sp and Botrytis cinerea, respectively. The compounds were applied by spraying, at a concentration of 1 μM, every 24 hours for one week. The plant mortality rate was determined for the disease produced by Phytophthora parasitica, Rhizoctonia solani and Nocardia sp, while the percentage of leaves with symptoms was determined for the infection by Alternaria solani. In the case of plants affected by Botrytis cinerea, the lesion diameter was measured. […] Each treatment included fifty plants. As control, plants treated with water were studied. The plants of each treatment were previously inoculated with the indicated pathogens, according to different inoculation protocols (Frontiers in Plant Science 3: 268, 1-6, 2012), and later they were treated with the compounds.

Rhizoctonia solani [3] = assay: Control of Rhizoctonia solani disease in tomato (Rs-SI); conditions: 1 μM spraying every 24 hours for one week, water control 96
Description: as §1

Nocardia sp = assay: Control of Nocardia sp disease in tobacco (N-Nt); conditions: 1 μM spraying every 24 hours for one week, water control 58
Description: as §1

Botrytis cinerea [4] = assay: Control of Botrytis cinerea disease in Arabidopsis (Bc-At); conditions: 1 μM spraying every 24 hours for one week, water control 8.7
Description: as §1

Botrytis cinerea [5] = assay: Control of Botrytis cinerea disease in tobacco (Bc-Nt); conditions: 1 μM spraying every 24 hours for one week, water control 6.7
Description: as §1

Alternaria solani = assay: Control of Alternaria solani disease in tomato (As-SI); conditions: 1 μM spraying every 24 hours for one week, water control 68
Description: as §1

Meloidogyne incognita = assay: Nematode control, nodules per plant: Meloidogyne incognita; conditions: 1 μM foliar application every 5 days, evaluation 35 days after, control 34
Description: (§2) The solutions of the compounds were prepared in ethanol and diluted in water, up to a concentration of 1 μM for a foliar application. Applications were conducted every 5 days, spraying only the leafs with each compound. Ten plants were used for each treatment and the final evaluation was performed 35 days after, by quantifying the number of nodules per plant.

Radopholus similis = assay: Nematode control, nodules per plant: Radopholus similis; conditions: 1 μM foliar application every 5 days, evaluation 35 days after, control 45
Description: as §2

Rhizoctonia solani [6] = assay: Control of Rhizoctonia solani disease in tobacco (Rs-Nt); conditions: 1 μM spraying every 24 hours for one week, water control 87
Description: as §1

Pratylenchus coffeae = assay: Nematode control, nodules per plant: Pratylenchus coffeae; conditions: 1 μM foliar application every 5 days, evaluation 35 days after, control 42
Description: as §2

Phytophthora parasitica = assay: Control of Phytophthora parasitica disease in tobacco (Pp-Nt); conditions: 1 μM spraying every 24 hours for one week, water control 91
Description: as §1

| Structure (SMILES) | Titers of the bacterium ([1]; 0.001 μM) | Titers of the bacterium ([1]; 0.01 μM) | Titers of the bacterium ([1]; 1 μM) | Titers of the bacterium ([1]; 5 μM) | Titers of the bacterium ([1]; 10 μM) | Bc-SI: mean of the diameter of the lesion (Botrytis cinerea [2]) | Rs-SI: percentage of mortality (Rhizoctonia solani [3]) | N-Nt: percentage of mortality (Nocardia sp) | Bc-At: mean of the diameter of the lesion (Botrytis cinerea [4]) | Bc-Nt: mean of the diameter of the lesion (Botrytis cinerea [5]) | As-SI: percentage of leaves with the disease symptoms (Alternaria solani) | Mi: number of nodules per plant (Meloidogyne incognita) | Rs: number of nodules per plant (Radopholus similis) | Rs-Nt: percentage of mortality (Rhizoctonia solani [6]) | Pc: number of nodules per plant (Pratylenchus coffeae) | Pp-Nt: percentage of mortality (Phytophthora parasitica) |
| --- | --- | --- | --- | --- | --- | --- | --- | --- | --- | --- | --- | --- | --- | --- | --- | --- |
| CC1CCN(C(=O)c2ccc(OC3CCN(CC(O)CO)CC3)cc2)C1 (stereo not shown) [IVA, 3-(4-{4-[(3-methylpyrrolidin-1-yl)carbonyl]phenoxy}piperidin-1-yl)propane-1,2-diol] | 598 copies per reaction | 1 copies per reaction | 5 copies per reaction | 98 copies per reaction | 6521 copies per reaction | 0.8 mm | 1% | 0% | 2.4 mm | 1.5 mm | 5% | 0 | 0 | 0% | 0 | 0% |
| O=C(CC1COc2ccc(C(=O)NC3CCCCC3)cc2N1)NC(CO)CO (stereo not shown) [VE, N-cyclohexyl-3-{[(1,3-dihydroxypropan-2-yl)carbamoyl]methyl}-3,4-dihydro-2H-1,4-benzoxazine-6-carboxamide] | 587 copies per reaction | 0 copies per reaction | 0 copies per reaction | 87 copies per reaction | 4587 copies per reaction | 0.8 mm | 1% | 0% | 0.5 mm | 0.9 mm | 7% | 0 | 3 | 0% | 0 | 3% |
| Cc1c2c(oc(=O)c1CC(=O)NCC(O)CO)C=CC1C(C3CCCC3)=COC21 (stereo not shown) [IIK, 2-{5-cyclopentyl-13-methyl-11-oxo-3,10-dioxatricyclo[7.4.0.0^{2,6}]trideca-1(9),4,7,12-tetraen-12-yl}-N-(2,3-dihydroxypropyl)acetamide] | 578 copies per reaction | 8 copies per reaction | 0 copies per reaction | 78 copies per reaction | 2365 copies per reaction | 0.8 mm | 2% | 1% | 1.2 mm | 0.3 mm | 8% | 0 | 0 | 0% | 14 | 0% |
| Cc1c2c(oc(=O)c1CC(=O)NCC(O)CO)C=CC1C(c3ccc4ccccc4c3)=COC21 (stereo not shown) [IIL, N-(2,3-dihydroxypropyl)-2-[13-methyl-5-(naphthalen-2-yl)-11-oxo-3,10-dioxatricyclo[7.4.0.0^{2,6}]trideca-1(9),4,7,12-tetraen-12-yl]acetamide] | 635 copies per reaction | 1 copies per reaction | 0 copies per reaction | 65 copies per reaction | 5478 copies per reaction | 1.6 mm | 0% | 0% | 1.1 mm | 2.0 mm | 7% | 0 | 0 | 0% | 0 | 0% |
| O=C(CCc1cc2cc3c(C4CCCC4)coc3cc2oc1=O)NCC(O)CO (stereo not shown) [ID, 3-{6-cyclopentyl-2-oxo-2H-furo[3,2-g]chromen-3-yl}-N-(2,3-dihydroxypropyl)propanamide] | 123 copies per reaction | 0 copies per reaction | 0 copies per reaction | 123 copies per reaction | 5489 copies per reaction | 2.5 mm | 2% | 1% | 1.5 mm | 1.5 mm | 8% | 0 | 0 | 0% | 11 | 0% |
| Cc1c2c(oc(=O)c1CC(=O)NCC(O)CO)C=CC1C(n3cccc3)=COC21 (stereo not shown) [IIN, N-(2,3-dihydroxypropyl)-2-[13-methyl-11-oxo-5-(1H-pyrrol-1-yl)-3,10-dioxatricyclo[7.4.0.0^{2,6}]trideca-1(9),4,7,12-tetraen-12-yl]acetamide] | 598 copies per reaction | 0 copies per reaction | 0 copies per reaction | 98 copies per reaction | 9654 copies per reaction | 2.5 mm | 1% | 0% | 1.5 mm | 1.5 mm | 7% | 0 | 3 | 0% | 0 | 3% |
| O=C(Cc1cc2c(oc1=O)C=CC1C(C3CCCC3)=COC21)NCC(O)CO (stereo not shown) [IID, 2-{5-cyclopentyl-11-oxo-3,10-dioxatricyclo[7.4.0.0^{2,6}]trideca-1(9),4,7,12-tetraen-12-yl}-N-(2,3-dihydroxypropyl)acetamide] | 587 copies per reaction | 12 copies per reaction | 2 copies per reaction | 87 copies per reaction | 1351 copies per reaction | 1.2 mm | 2% | 1% | 0.7 mm | 0.9 mm | 8% | 0 | 0 | 0% | 17 | 0% |
